Literature values in patent US20100284985A1, “Composition” (Danisco A/S, priority 2007, published 2010).

Tested on: common food spoilage yeasts and moulds
Details: most strains of common food spoilage yeasts and moulds; cited from earlier work

C[C@@H]1C/C=C/C=C/C=C/C=C/[C@H](O[C@@H]2O[C@H](C)[C@@H](O)[C@H](N)[C@@H]2O)C[C@@H]2O[C@](O)(C[C@@H](O)C[C@H]3O[C@@H]3/C=C/C(=O)O1)C[C@H](O)[C@H]2C(=O)O [natamycin]
concentrations inhibiting most strains: 1-15 ppm
